Measurements taken from patent US10829473B2, “Modulators of the cystic fibrosis transmembrane conductance regulator protein and methods of use” (AbbVie Overseas S.Á.R.L., priority 2017, dated 2020).
Where two headings read alike, the source gives them in different places. Marks after values point to notes of the source that are not given here.

Molecular target: T1, F508delCFTR (Homo sapiens, UniProt P13569, DEL508-508)
T1 construct: expressed in transfected cells; host or cells: CFBE41o- human lung derived epithelial cells (CFBE41o-F508delCFTR-HRP), doxycycline-inducible
Test: Cell Surface Expression-Horse Radish Peroxidase (CSE-HRP) Assay;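 for EC50 (with co-corrector): co-corrector chromenyl benzoic acid corrector at 2 or 3 µM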;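 for Maximum % activity (without co-corrector): % of on-plate positive control chromenyl benzoic acid corrector at 2 or 3 µM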
Assay type: cell-based
Conditions: for Maximum % activity (with co-corrector) / Emax: maximum at any tested concentration; for Emax: read-out: Maximum % activity (without co-corrector)
Summary of the method: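 Corrector compounds were given as 8-point 3-fold series from 20 or 30 μM, with or without a 2 μM co-corrector, for 18-24 h at 33 °C. Surface HRP was read by luminol luminescence as % of positive control; variable-Hill-slope sigmoidal fitting gave EC50 from triplicate plates.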

[1] = test compound alone, without co-corrector, read-out: EC50 (without co-corrector)
[2] = with co-corrector, read-out: EC50 (with co-corrector)
[3] = test compound with co-corrector
[4] = test compound with co-corrector, read-out: EC50 (with co-corrector)
[5] = test compound without co-corrector
[6] = test compound without co-corrector, read-out: EC50 (without co-corrector)

T1 sequence (P13569 with tags, fused parts or gaps DEL508-508): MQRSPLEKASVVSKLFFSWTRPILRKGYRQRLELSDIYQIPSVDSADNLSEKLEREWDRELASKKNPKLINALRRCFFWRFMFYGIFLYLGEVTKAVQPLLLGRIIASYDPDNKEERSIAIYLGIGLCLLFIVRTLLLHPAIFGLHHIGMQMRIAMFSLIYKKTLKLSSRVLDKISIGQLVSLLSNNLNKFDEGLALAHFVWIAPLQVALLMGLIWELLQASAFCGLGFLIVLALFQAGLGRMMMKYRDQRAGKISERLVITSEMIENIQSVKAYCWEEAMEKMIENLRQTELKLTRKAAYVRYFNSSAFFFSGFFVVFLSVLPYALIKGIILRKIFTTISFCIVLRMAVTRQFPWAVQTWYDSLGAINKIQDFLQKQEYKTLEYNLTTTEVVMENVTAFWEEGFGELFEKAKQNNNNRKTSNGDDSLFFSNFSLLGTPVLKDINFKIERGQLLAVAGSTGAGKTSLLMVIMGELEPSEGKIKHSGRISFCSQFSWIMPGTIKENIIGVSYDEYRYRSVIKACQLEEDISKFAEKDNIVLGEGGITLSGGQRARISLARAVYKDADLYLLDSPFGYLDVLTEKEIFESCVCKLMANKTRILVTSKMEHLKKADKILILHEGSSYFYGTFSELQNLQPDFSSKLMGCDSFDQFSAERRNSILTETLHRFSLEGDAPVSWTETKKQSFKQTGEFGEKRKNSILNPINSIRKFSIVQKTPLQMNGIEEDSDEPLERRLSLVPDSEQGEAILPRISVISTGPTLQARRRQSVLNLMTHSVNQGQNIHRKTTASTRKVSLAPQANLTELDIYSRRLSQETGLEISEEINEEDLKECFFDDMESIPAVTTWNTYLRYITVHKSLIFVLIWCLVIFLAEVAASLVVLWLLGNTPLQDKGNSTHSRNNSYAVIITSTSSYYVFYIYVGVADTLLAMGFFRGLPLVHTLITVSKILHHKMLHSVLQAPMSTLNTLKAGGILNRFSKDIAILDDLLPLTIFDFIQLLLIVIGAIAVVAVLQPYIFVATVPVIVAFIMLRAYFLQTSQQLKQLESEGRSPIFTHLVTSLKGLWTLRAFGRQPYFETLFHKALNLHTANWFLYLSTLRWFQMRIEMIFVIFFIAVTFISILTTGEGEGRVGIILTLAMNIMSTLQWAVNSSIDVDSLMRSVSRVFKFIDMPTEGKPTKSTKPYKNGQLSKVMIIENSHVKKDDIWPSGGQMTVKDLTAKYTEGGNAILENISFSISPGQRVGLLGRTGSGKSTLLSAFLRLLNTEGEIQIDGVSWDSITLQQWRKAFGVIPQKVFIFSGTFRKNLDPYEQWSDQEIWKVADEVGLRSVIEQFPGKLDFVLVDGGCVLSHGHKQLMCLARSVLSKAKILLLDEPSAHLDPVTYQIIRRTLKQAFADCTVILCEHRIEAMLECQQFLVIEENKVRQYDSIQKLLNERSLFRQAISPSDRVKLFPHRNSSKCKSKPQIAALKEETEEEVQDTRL

Compound: COc1ccc(Br)cc1C1(C(=O)NS(=O)(=O)c2cccc3c2CCCN3)CCC1 [Example I-9, 1-(5-bromo-2-methoxyphenyl)-N-(1,2,3,4-tetrahydroquinoline-5-sulfonyl)cyclobutane-1-carboxamide]
- EC50 [1]: < 3 µM
- Maximum % activity (with co-corrector) (with co-corrector): +++ (≥350)
- EC50 [2]: < 3 µM
- Emax (without co-corrector): > 150%

Compound: CC(C)COc1ccc(N(C)C)c(C2(C(=O)NS(=O)(=O)c3cccc4ncccc34)CC2)n1 [Example I-108, 1-[3-(dimethylamino)-6-(2-methylpropoxy)pyridin-2-yl]-N-(quinoline-5-sulfonyl)cyclopropane-1-carboxamide]
- EC50 [1]: < 3 µM
- Maximum % activity (with co-corrector) (with co-corrector): +++ (≥350)
- EC50 [2]: < 3 µM
- Emax (without co-corrector): > 150%

Compound: COc1ncc(C(F)(F)F)cc1C1(C(=O)NS(=O)(=O)c2cccc3ccccc23)CC1 [Example I-8, 1-[2-methoxy-5-(trifluoromethyl)pyridin-3-yl]-N-(naphthalene-1-sulfonyl)cyclopropane-1-carboxamide]
- EC50 [1]: < 3 µM
- Maximum % activity (with co-corrector) (with co-corrector): +++ (≥350)
- EC50 [2]: < 3 µM
- Emax (without co-corrector): > 150%

Compound: COc1ccc(OC(F)F)cc1C1(C(=O)NS(=O)(=O)c2cccc3ncccc23)CC1 [Example I-65, 1-[5-(difluoromethoxy)-2-methoxyphenyl]-N-(quinoline-5-sulfonyl)cyclopropane-1-carboxamide]
- EC50 [1]: 3 to 10 µM
- Maximum % activity (with co-corrector) (with co-corrector): +++ (≥350)
- EC50 [2]: < 3 µM
- Emax (without co-corrector): > 150%

Compound: Cc1cnc(OC(C)C)c(C2(C(=O)NS(=O)(=O)c3cccc4nc(N)ccc34)CC2)c1 [Example I-97, N-(2-aminoquinoline-5-sulfonyl)-1-{5-methyl-2-[(propan-2-yl)oxy]pyridin-3-yl}cyclopropane-1-carboxamide]
- EC50 [1]: < 3 µM
- Maximum % activity (with co-corrector) (with co-corrector): +++ (≥350)
- EC50 [2]: < 3 µM
- Emax (without co-corrector): > 150%

Compound: CC(C)Oc1ncc(Br)cc1C1(C(=O)NS(=O)(=O)c2cccc3ncccc23)CC1 [Example GI-1, 1-{5-bromo-2-[(propan-2-yl)oxy]pyridin-3-yl}-N-(quinoline-5-sulfonyl)cyclopropane-1-carboxamide]
- EC50 [1]: < 3 µM
- Maximum % activity (with co-corrector) (with co-corrector): +++ (≥350)
- EC50 [2]: < 3 µM
- Emax (without co-corrector): > 150%

Compound: COc1ccc(C(C)C)cc1C1(C(=O)NS(=O)(=O)c2cccc3ncccc23)CC1 [Example I-35, 1-[2-methoxy-5-(propan-2-yl)phenyl]-N-(quinoline-5-sulfonyl)cyclopropane-1-carboxamide]
- EC50 [1]: < 3 µM
- Maximum % activity (with co-corrector) (with co-corrector): +++ (≥350)
- EC50 [2]: < 3 µM
- Emax (without co-corrector): > 150%

Compound: Cc1cnc(N(C)C)cc1C1(C(=O)NS(=O)(=O)c2cccc3ncccc23)CC1 [GII-11, 1-[2-(dimethylamino)-5-methylpyridin-4-yl]-N-(quinoline-5-sulfonyl)cyclopropane-1-carboxamide]
- Maximum % activity (with co-corrector) [3]: +++ (≥350)
- EC50 [4]: 3 to 10 µM
- EC50 (without co-corrector) [5]: ++^a
- Emax [5]: 50 to 150%

Compound: COc1cc(OC(C)C)c(C2(C(=O)NS(=O)(=O)c3cccc4ncccc34)CC2)cn1 [Example GI-17, 1-{6-methoxy-4-[(propan-2-yl)oxy]pyridin-3-yl}-N-(quinoline-5-sulfonyl)cyclopropane-1-carboxamide]
- EC50 [1]: 3 to 10 µM
- Maximum % activity (with co-corrector) (with co-corrector): +++ (≥350)
- EC50 [2]: < 3 µM
- Emax (without co-corrector): > 150%

Compound: CCc1cnc(OCC(C)C)c(C2(C(=O)NS(=O)(=O)c3cccc4[nH]ncc34)CC2)c1 [Example I-94, 1-[5-ethyl-2-(2-methylpropoxy)pyridin-3-yl]-N-(1H-indazole-4-sulfonyl)cyclopropane-1-carboxamide]
- EC50 [1]: < 3 µM
- Maximum % activity (with co-corrector) (with co-corrector): +++ (≥350)
- EC50 [2]: < 3 µM
- Emax (without co-corrector): > 150%

Compound: COc1ccc(C)cc1C1(C(=O)NS(=O)(=O)c2cccc3[nH]ncc23)CC1 [Example I-53, N-(1H-indazole-4-sulfonyl)-1-(2-methoxy-5-methylphenyl)cyclopropane-1-carboxamide]
- EC50 [1]: 3 to 10 µM
- Maximum % activity (with co-corrector) (with co-corrector): +++ (≥350)
- EC50 [2]: < 3 µM
- Emax (without co-corrector): > 150%

Compound: COc1cc(C2CCC2)cc(OC)c1C1(C(=O)NS(=O)(=O)c2cccn3nccc23)CC1 [II-68]
- EC50 [1]: 3 to 10 µM
- Maximum % activity (with co-corrector) (with co-corrector): +++ (≥350)
- EC50 [2]: < 3 µM
- Emax (without co-corrector): > 150%

Compound: O=C(CCc1ccccc1)N1CCC(S(=O)(=O)NC(=O)C2(c3ccc(Cl)cc3Cl)CC2)CC1 [Example III-79, 1-(2,4-dichlorophenyl)-N-[1-(3-phenylpropanoyl)piperidine-4-sulfonyl]cyclopropane-1-carboxamide]
- EC50 [1]: > 10 µM
- Maximum % activity (with co-corrector) (with co-corrector): + (<150)
- EC50 [2]: 3 to 10 µM
- Emax (without co-corrector): < 50%

Compound: COc1ncc(C2CCC2)c(C)c1C1(C(=O)NS(=O)(=O)c2cccc3cnn(C)c23)CC1 [II-43]
- EC50 [1]: < 3 µM
- Maximum % activity (with co-corrector) (with co-corrector): +++ (≥350)
- EC50 [2]: < 3 µM
- Emax (without co-corrector): 50 to 150%

Compound: CC(C)Oc1cc(C2CCC2)cnc1C1(C(=O)NS(=O)(=O)c2cccc3ncccc23)CC1 [GII-27, 1-{5-cyclobutyl-3-[(propan-2-yl)oxy]pyridin-2-yl}-N-(quinoline-5-sulfonyl)cyclopropane-1-carboxamide]
- Maximum % activity (with co-corrector) [3]: ++ (≥150 and <350)
- EC50 [4]: 3 to 10 µM
- Emax [5]: 50 to 150%
- EC50 [6]: 3 to 10 µM

Compound: O=C(NS(=O)(=O)c1ccccc1)C1(c2ccc(F)cc2)CC1 [Example III-31, N-(benzenesulfonyl)-1-(4-fluorophenyl)cyclopropane-1-carboxamide]
- EC50 [1]: > 10 µM
- Maximum % activity (with co-corrector) (with co-corrector): ++ (≥150 and <350)
- EC50 [2]: 3 to 10 µM
- Emax (without co-corrector): < 50%

Compound: COc1cc(C2CCC2)cc(OC)c1C1(C(=O)NS(=O)(=O)c2cccc3c2ccn3C)CC1 [II-65]
- EC50 [1]: < 3 µM
- Maximum % activity (with co-corrector) (with co-corrector): +++ (≥350)
- EC50 [2]: < 3 µM
- Emax (without co-corrector): > 150%

Compound: COC(C)(C)c1ccc(OC(F)F)c(C2(C(=O)NS(=O)(=O)c3cccc4ncccc34)CC2)c1 [II-108]
- EC50 [1]: 3 to 10 µM
- Maximum % activity (with co-corrector) (with co-corrector): +++ (≥350)
- EC50 [2]: 3 to 10 µM
- Emax (without co-corrector): > 150%

Compound: COc1ccc(C)c(C)c1C1(C(=O)NS(=O)(=O)c2cccc3ncccc23)CC1 [Example I-47, 1-(6-methoxy-2,3-dimethylphenyl)-N-(quinoline-5-sulfonyl)cyclopropane-1-carboxamide]
- EC50 [1]: < 3 µM
- Maximum % activity (with co-corrector) (with co-corrector): +++ (≥350)
- EC50 [2]: < 3 µM
- Emax (without co-corrector): > 150%

Compound: O=C(NS(=O)(=O)c1cccc2ccccc12)C1(c2cccc(Br)c2)CC1 [Example III-92, 1-(3-bromophenyl)-N-(naphthalene-1-sulfonyl)cyclopropane-1-carboxamide]
- EC50 [1]: 3 to 10 µM
- Maximum % activity (with co-corrector) (with co-corrector): +++ (≥350)
- EC50 [2]: 3 to 10 µM
- Emax (without co-corrector): > 150%

Compound: O=C(NS(=O)(=O)c1cccc2ncccc12)C1(c2cccnc2N2CCCC2)CC1 [GII-33, 1-[2-(pyrrolidin-1-yl)pyridin-3-yl]-N-(quinoline-5-sulfonyl)cyclopropane-1-carboxamide]
- EC50 (with co-corrector) [3]: ++^a
- Maximum % activity (with co-corrector) [3]: ++ (≥150 and <350)
- EC50 (without co-corrector) [5]: ++^a
- Emax [5]: 50 to 150%

Compound: CCOCC(C)(C)c1ccc(OC)c(C2(C(=O)NS(=O)(=O)c3cccc4ncccc34)CC2)c1 [II-110]
- EC50 [1]: < 3 µM
- Maximum % activity (with co-corrector) (with co-corrector): +++ (≥350)
- EC50 [2]: < 3 µM
- Emax (without co-corrector): > 150%

Compound: Cc1cnc(OC(C)C)c(C2(C(=O)NS(=O)(=O)c3cccc4nc(C)ccc34)CC2)c1 [Example GI-58, 1-{5-methyl-2-[(propan-2-yl)oxy]pyridin-3-yl}-N-(2-methylquinoline-5-sulfonyl)cyclopropane-1-carboxamide]
- Maximum % activity (with co-corrector) [3]: +++ (≥350)
- EC50 [4]: < 3 µM
- Emax [5]: > 150%
- EC50 [6]: < 3 µM

Compound: CC(C)Oc1ccc(S(=O)(=O)NC(=O)C2(c3ccc(Cl)cc3Cl)CC2)cc1 [Example III-20, 1-(2,4-dichlorophenyl)-N-{4-[(propan-2-yl)oxy]benzene-1-sulfonyl}cyclopropane-1-carboxamide]
- EC50 [1]: > 10 µM
- Maximum % activity (with co-corrector) (with co-corrector): + (<150)
- EC50 [2]: > 10 µM
- Emax (without co-corrector): < 50%

Compound: Cc1cnc(OC(C)C)c(C2(C(=O)NS(=O)(=O)c3cccc4[nH]ccc34)CC2)c1 [Example GI-59, N-(1H-indole-4-sulfonyl)-1-{5-methyl-2-[(propan-2-yl)oxy]pyridin-3-yl}cyclopropane-1-carboxamide]
- Maximum % activity (with co-corrector) [3]: +++ (≥350)
- EC50 [4]: < 3 µM
- Emax [5]: > 150%
- EC50 [6]: 3 to 10 µM

Compound: Cc1ccc2c(S(=O)(=O)NC(=O)C3(c4nc(OCC(C)C)ccc4OC(C)C)CC3)cccc2n1 [Example GI-90, 1-{6-(2-methylpropoxy)-3-[(propan-2-yl)oxy]pyridin-2-yl}-N-(2-methylquinoline-5-sulfonyl)cyclopropane-1-carboxamide]
- Maximum % activity (with co-corrector) [3]: +++ (≥350)
- EC50 [4]: < 3 µM
- Emax [5]: > 150%
- EC50 [6]: < 3 µM

Compound: O=C(NS(=O)(=O)c1ccc2ccccc2c1)C1(c2ccc(Cl)cc2Cl)CC1 [Example III-27, 1-(2,4-dichlorophenyl)-N-(naphthalene-2-sulfonyl)cyclopropane-1-carboxamide]
- EC50 [1]: > 10 µM
- Maximum % activity (with co-corrector) (with co-corrector): + (<150)
- EC50 [2]: > 10 µM
- Emax (without co-corrector): < 50%

Compound: CCc1cccc(OC)c1C1(C(=O)NS(=O)(=O)c2cccc3nc(C)ccc23)CC1 [Example III-133, 1-(2-ethyl-6-methoxyphenyl)-N-(2-methylquinoline-5-sulfonyl)cyclopropane-1-carboxamide]
- EC50 [1]: < 3 µM
- Maximum % activity (with co-corrector) (with co-corrector): +++ (≥350)
- EC50 [2]: < 3 µM
- Emax (without co-corrector): > 150%
